Measured values taken from ChEMBL document CHEMBL1135457 (J Med Chem, 2002).

Columns and labels:
[1] = target: T1, Androgen receptor (Homo sapiens, UniProt P10275); test: Displacement of [3H]DHT from human Androgen receptor
T1 sequence (P10275 whole entry): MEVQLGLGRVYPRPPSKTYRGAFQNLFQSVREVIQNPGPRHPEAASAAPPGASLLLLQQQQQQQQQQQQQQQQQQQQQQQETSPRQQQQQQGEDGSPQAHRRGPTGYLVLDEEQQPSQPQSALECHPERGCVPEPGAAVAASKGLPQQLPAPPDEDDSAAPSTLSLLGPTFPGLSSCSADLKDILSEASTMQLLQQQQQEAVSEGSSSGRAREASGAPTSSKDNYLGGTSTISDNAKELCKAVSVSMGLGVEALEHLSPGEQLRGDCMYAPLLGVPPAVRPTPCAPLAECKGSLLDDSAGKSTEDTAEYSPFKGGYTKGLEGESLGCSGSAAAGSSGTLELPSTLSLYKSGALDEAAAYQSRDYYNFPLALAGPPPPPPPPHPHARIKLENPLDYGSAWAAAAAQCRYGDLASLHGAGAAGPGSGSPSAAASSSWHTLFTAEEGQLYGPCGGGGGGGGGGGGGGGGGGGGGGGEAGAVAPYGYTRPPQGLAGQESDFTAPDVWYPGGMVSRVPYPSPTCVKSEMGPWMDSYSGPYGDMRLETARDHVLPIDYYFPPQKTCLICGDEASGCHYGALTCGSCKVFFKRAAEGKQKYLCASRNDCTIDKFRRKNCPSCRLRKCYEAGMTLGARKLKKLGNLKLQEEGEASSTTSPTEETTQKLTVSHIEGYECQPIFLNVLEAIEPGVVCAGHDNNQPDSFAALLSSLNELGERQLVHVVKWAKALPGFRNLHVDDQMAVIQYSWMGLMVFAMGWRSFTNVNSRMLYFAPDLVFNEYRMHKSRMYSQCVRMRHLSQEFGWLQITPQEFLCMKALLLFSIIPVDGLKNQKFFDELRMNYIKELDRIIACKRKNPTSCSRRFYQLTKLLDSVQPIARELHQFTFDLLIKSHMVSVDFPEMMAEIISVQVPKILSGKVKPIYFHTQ

[2] = target: Estrogen receptor beta (Homo sapiens, UniProt Q92731); test: Displacement of radioligand from human Estrogen receptor beta, percent inhibition at 10 uM
[3] = target: T2, Estrogen receptor (Homo sapiens) (UniProt P03372); test: Displacement of radioligand from human Estrogen receptor alpha, percent inhibition at 10 uM
T2 sequence (whole entry): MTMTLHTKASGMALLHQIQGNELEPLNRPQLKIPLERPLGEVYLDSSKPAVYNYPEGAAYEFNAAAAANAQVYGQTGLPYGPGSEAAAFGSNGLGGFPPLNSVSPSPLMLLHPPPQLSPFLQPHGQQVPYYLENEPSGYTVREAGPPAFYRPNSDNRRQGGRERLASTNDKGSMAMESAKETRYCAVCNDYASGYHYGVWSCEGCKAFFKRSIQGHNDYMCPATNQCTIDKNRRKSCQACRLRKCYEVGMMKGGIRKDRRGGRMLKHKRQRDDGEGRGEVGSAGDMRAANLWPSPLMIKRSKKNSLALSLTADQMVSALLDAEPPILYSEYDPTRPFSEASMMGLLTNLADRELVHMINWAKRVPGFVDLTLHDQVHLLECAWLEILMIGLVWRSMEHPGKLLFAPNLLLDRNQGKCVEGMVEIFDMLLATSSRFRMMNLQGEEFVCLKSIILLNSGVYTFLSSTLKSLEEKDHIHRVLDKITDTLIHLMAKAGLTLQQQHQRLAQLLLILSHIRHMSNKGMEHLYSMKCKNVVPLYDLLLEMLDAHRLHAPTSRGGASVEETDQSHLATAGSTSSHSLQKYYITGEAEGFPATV

[4] = target: T3, Progesterone receptor (Homo sapiens, UniProt P06401); test: Displacement of radioligand from human Progesterone receptor
T3 sequence (P06401 whole entry): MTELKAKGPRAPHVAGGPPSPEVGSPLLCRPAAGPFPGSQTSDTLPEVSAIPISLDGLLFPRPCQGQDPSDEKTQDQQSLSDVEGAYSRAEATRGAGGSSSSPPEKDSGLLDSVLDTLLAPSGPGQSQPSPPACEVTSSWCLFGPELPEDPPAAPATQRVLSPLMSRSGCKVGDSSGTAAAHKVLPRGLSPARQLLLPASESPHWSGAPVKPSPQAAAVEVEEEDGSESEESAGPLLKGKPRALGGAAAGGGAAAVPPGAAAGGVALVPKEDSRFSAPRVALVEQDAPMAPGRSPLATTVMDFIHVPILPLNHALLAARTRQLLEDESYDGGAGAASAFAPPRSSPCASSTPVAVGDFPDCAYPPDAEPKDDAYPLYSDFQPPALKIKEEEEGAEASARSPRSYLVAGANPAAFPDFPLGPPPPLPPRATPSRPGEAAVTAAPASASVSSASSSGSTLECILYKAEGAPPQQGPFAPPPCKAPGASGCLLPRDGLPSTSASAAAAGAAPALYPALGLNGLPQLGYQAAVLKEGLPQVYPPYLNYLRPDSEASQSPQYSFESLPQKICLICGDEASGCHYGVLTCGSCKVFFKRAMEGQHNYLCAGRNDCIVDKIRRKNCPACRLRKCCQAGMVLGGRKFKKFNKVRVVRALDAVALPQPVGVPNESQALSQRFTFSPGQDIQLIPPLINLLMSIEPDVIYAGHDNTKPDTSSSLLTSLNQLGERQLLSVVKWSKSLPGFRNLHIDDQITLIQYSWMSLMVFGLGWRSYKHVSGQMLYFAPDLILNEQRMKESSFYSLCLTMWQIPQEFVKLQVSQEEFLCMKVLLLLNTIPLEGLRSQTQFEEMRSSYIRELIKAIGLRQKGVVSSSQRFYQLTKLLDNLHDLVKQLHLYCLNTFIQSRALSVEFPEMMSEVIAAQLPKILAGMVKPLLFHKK

Estrogen receptor beta, sequence (Q92731 whole entry): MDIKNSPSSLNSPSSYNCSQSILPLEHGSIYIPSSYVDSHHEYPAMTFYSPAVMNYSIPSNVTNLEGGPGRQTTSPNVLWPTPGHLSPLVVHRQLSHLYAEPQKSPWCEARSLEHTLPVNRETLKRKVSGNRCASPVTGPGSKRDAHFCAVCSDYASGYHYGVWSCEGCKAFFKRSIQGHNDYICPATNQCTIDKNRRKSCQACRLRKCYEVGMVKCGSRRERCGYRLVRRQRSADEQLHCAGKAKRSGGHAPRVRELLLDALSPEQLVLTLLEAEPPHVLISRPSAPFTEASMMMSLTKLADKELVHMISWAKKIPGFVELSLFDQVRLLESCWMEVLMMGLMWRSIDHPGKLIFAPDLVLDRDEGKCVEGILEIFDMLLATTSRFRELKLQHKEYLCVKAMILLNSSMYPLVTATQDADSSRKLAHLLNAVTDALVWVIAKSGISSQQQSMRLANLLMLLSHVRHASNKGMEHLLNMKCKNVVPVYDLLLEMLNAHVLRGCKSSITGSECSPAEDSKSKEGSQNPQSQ

Row | inhibition [2] [%] | Ki [4] [µM] | Structure (SMILES) | Ki [1] [nM] | inhibition [3] [%]
1 | 54 | > 10 | O=C1CC[C@@]2(Cc3ccccc3)c3ccc(O)cc3CC[C@@H]2C1 | 1300 | 45
2 | 57 | > 10 | CC#C[C@@]1(O)CC[C@@]2(Cc3ccccc3)c3ccc(O)cc3CC[C@@H]2C1 | – | 50
3 | – | – | CC#C[C@]1(O)CCC2C3CCC4=CC(=O)CC[C@]4(Cc4ccc(C)cc4)C3=CC[C@@]21C (stereo partly drawn) | 90 | 20

Row | Structure (SMILES) | inhibition [2] [%] | Ki [4] [µM] | Ki [1] [nM] | inhibition [3] [%]
4 | Oc1ccc2c(c1)CC[C@@H]1C[C@@](O)(C#CCl)CC[C@@]21Cc1ccccc1 | 75 | > 10 | 130 | 62
